Assay results taken from ChEMBL document CHEMBL1139780, “Pentamer is the minimum structure for oligomannosylpeptoids to bind to concanavalin A” (Bioorg Med Chem Lett, 2007).
Active and inactive are the calls of the source. No cut-off for these calls is given here.

Each compound was assayed against Concanavalin-A (Canavalia ensiformis) (UniProt P02866) (assay: Binding affinity to jack bean concanavalin A by enzyme-linked lectin assay).
Concanavalin-A (Canavalia ensiformis), sequence (P02866 whole entry): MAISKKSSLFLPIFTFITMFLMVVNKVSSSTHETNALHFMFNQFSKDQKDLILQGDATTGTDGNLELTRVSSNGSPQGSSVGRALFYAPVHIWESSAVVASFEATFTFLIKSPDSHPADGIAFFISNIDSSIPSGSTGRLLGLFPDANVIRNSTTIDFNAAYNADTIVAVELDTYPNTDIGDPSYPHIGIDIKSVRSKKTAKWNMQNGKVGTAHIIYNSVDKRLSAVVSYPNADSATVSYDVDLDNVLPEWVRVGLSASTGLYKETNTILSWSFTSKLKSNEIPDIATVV

Activity, active:
NC(=O)CN(CCO[C@H]1O[C@H](CO)[C@@H](O)[C@H](O)[C@@H]1O)C(=O)CN(CCO[C@H]1O[C@H](CO)[C@@H](O)[C@H](O)[C@@H]1O)C(=O)CN(CCO[C@H]1O[C@H](CO)[C@@H](O)[C@H](O)[C@@H]1O)C(=O)CN(CCO[C@H]1O[C@H](CO)[C@@H](O)[C@H](O)[C@@H]1O)C(=O)CN(CCO[C@H]1O[C@H](CO)[C@@H](O)[C@H](O)[C@@H]1O)C(=O)CNC(=O)CCCCC1SC[C@@H]2NC(=O)N[C@H]12 (stereo not given in full)
NC(=O)CN(CCO[C@H]1O[C@H](CO)[C@@H](O)[C@H](O)[C@@H]1O)C(=O)CN(CCO[C@H]1O[C@H](CO)[C@@H](O)[C@H](O)[C@@H]1O)C(=O)CN(CCO[C@H]1O[C@H](CO)[C@@H](O)[C@H](O)[C@@H]1O)C(=O)CN(CCO[C@H]1O[C@H](CO)[C@@H](O)[C@H](O)[C@@H]1O)C(=O)CN(CCO[C@H]1O[C@H](CO)[C@@H](O)[C@H](O)[C@@H]1O)C(=O)CNC(=O)CCCCCNC(=O)CCCCC1SC[C@@H]2NC(=O)N[C@H]12 (stereo not given in full)
NC(=O)CCN(CCO[C@H]1O[C@H](CO)[C@@H](O)[C@H](O)[C@@H]1O)C(=O)CN(CCO[C@H]1O[C@H](CO)[C@@H](O)[C@H](O)[C@@H]1O)C(=O)CN(CCO[C@H]1O[C@H](CO)[C@@H](O)[C@H](O)[C@@H]1O)C(=O)CN(CCO[C@H]1O[C@H](CO)[C@@H](O)[C@H](O)[C@@H]1O)C(=O)CN(CCO[C@H]1O[C@H](CO)[C@@H](O)[C@H](O)[C@@H]1O)C(=O)CN(CCO[C@H]1O[C@H](CO)[C@@H](O)[C@H](O)[C@@H]1O)C(=O)CNC(=O)CCCCC1SC[C@@H]2NC(=O)N[C@H]12 (stereo not given in full)
NC(=O)CCN(CCO[C@H]1O[C@H](CO)[C@@H](O)[C@H](O)[C@@H]1O)C(=O)CN(CCO[C@H]1O[C@H](CO)[C@@H](O)[C@H](O)[C@@H]1O)C(=O)CN(CCO[C@H]1O[C@H](CO)[C@@H](O)[C@H](O)[C@@H]1O)C(=O)CN(CCO[C@H]1O[C@H](CO)[C@@H](O)[C@H](O)[C@@H]1O)C(=O)CN(CCO[C@H]1O[C@H](CO)[C@@H](O)[C@H](O)[C@@H]1O)C(=O)CN(CCO[C@H]1O[C@H](CO)[C@@H](O)[C@H](O)[C@@H]1O)C(=O)CNC(=O)CCCCCNC(=O)CCCCC1SC[C@@H]2NC(=O)N[C@H]12 (stereo not given in full)
CN(C)c1cccc2c(S(=O)(=O)N(CCO[C@H]3O[C@H](CO)[C@@H](O)[C@H](O)[C@@H]3O)CC(=O)N(CCO[C@H]3O[C@H](CO)[C@@H](O)[C@H](O)[C@@H]3O)CC(=O)N(CCO[C@H]3O[C@H](CO)[C@@H](O)[C@H](O)[C@@H]3O)CC(N)=O)cccc12
